The record followed here is the supplement of paper PMC10307832.

Common to all, as to experiment: relative viability (nuclei count vs DMSO), 5 days (fraction); higher = more cells survive
Compound in the experiment “XMD8-85 + Foretinib”: CN1CCN(CC1)C2=CC(=C(C=C2)NC3=NC=C4C(=N3)N(C5=CC=CC=C5C(=O)N4C)C)OC [XMD8-85] + COc1cc2c(Oc3ccc(NC(=O)C4(C(=O)Nc5ccc(F)cc5)CC4)cc3F)ccnc2cc1OCCCN1CCOCC1 [Foretinib] (partner 0.25 µM)
Put shortly:
(§1)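 A single step with final 0.05% Triton X-100, 1% formaldehyde and 1 ug/ml Hoechst fixed the cells and stained nuclei 5 days after treatment. Lung cancer cell lines in 1536-well plates had been treated by pin tool the day after seeding with one drug alone or a fixed anchor-drug dose plus five library-drug doses (not always all listed) in √10 steps, and nuclei were counted on 4× images. Relative viability is the ratio of nuclei in treated wells to nuclei in vehicle wells, taken as the median of duplicate plates.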

Compound in the experiment “XMD8-85 + Decitabine”: CN1CCN(CC1)C2=CC(=C(C=C2)NC3=NC=C4C(=N3)N(C5=CC=CC=C5C(=O)N4C)C)OC [XMD8-85] + Nc1ncn([C@H]2C[C@H](O)[C@@H](CO)O2)c(=O)n1 [Decitabine] (partner 2 µM)
Put shortly: as §1

Compound in the experiment “4EGI-1 + Navitoclax”: O=C(O)C(Cc1ccccc1[N+](=O)[O-])=NNc1nc(-c2ccc(Cl)c(Cl)c2)cs1 (mixture of isomers) [4EGI-1] + CC1(C)CCC(c2ccc(Cl)cc2)=C(CN2CCN(c3ccc(C(=O)NS(=O)(=O)c4ccc(N[C@H](CCN5CCOCC5)CSc5ccccc5)c(S(=O)(=O)C(F)(F)F)c4)cc3)CC2)C1 [Navitoclax] (partner 0.5 µM)
Put shortly:
as §1

Compound in the experiment “4EGI-1 + Decitabine”: O=C(O)C(Cc1ccccc1[N+](=O)[O-])=NNc1nc(-c2ccc(Cl)c(Cl)c2)cs1 (mixture of isomers) [4EGI-1] + Nc1ncn([C@H]2C[C@H](O)[C@@H](CO)O2)c(=O)n1 [Decitabine] (partner 2 µM)
In short, it runs like this:
as §1

In the case of NCI-H647, the relative viability in the experiment with XMD8-85 + Foretinib (first compound 0.08 µM) was found to be 1.37; with XMD8-85 + Foretinib (first compound 0.253 µM), 1.3; with XMD8-85 + Foretinib (first compound 0.8 µM), 1.34; with XMD8-85 + Foretinib (first compound 2.53 µM) it was 1.04; in the experiment with XMD8-85 + Foretinib (first compound 8 µM) it was 0.865; with XMD8-85 + Decitabine (first compound 0.08 µM), 0.43. Besides, the relative viability in the experiment with XMD8-85 + Decitabine (first compound 0.253 µM) stood at 0.357; with XMD8-85 + Decitabine (first compound 0.8 µM), 0.417; in the experiment with XMD8-85 + Decitabine (first compound 2.53 µM), 0.45; with XMD8-85 + Decitabine (first compound 8 µM), 0.327; with 4EGI-1 + Navitoclax (first compound 0.5 µM), 1.27; in the experiment with 4EGI-1 + Navitoclax (first compound 5 µM) it was 1.12. In addition, the relative viability was 0.995 with 4EGI-1 + Navitoclax (first compound 15.81 µM); 0.307 in the experiment with 4EGI-1 + Navitoclax (first compound 50 µM); 0.433 with 4EGI-1 + Decitabine (first compound 0.5 µM); 0.309 in the experiment with 4EGI-1 + Decitabine (first compound 1.581 µM); 0.391 in the experiment with 4EGI-1 + Decitabine (first compound 5 µM); 0.218 with 4EGI-1 + Decitabine (first compound 15.81 µM). Further, the relative viability with 4EGI-1 + Decitabine (first compound 50 µM) was determined as 0.155.
With NCI-H727, the relative viability stood at 0.895 with XMD8-85 + Foretinib (first compound 0.08 µM); 1.05 with XMD8-85 + Foretinib (first compound 0.253 µM); 0.823 with XMD8-85 + Foretinib (first compound 0.8 µM); 0.553 in the experiment with XMD8-85 + Foretinib (first compound 2.53 µM); 0.693 with XMD8-85 + Foretinib (first compound 8 µM); 0.867 in the experiment with XMD8-85 + Decitabine (first compound 0.08 µM). In addition, the relative viability came to 1.04 with XMD8-85 + Decitabine (first compound 0.253 µM); 0.84 with XMD8-85 + Decitabine (first compound 0.8 µM); 0.894 in the experiment with XMD8-85 + Decitabine (first compound 2.53 µM); 0.643 in the experiment with XMD8-85 + Decitabine (first compound 8 µM); 0.434 with 4EGI-1 + Navitoclax (first compound 0.5 µM); 0.519 with 4EGI-1 + Navitoclax (first compound 1.581 µM). Also, the relative viability with 4EGI-1 + Navitoclax (first compound 5 µM) is 0.427; in the experiment with 4EGI-1 + Navitoclax (first compound 15.81 µM), 0.257; in the experiment with 4EGI-1 + Navitoclax (first compound 50 µM), 0.204; in the experiment with 4EGI-1 + Decitabine (first compound 0.5 µM), 0.731; with 4EGI-1 + Decitabine (first compound 1.581 µM), 0.854; with 4EGI-1 + Decitabine (first compound 5 µM), 0.858. Moreover, the relative viability with 4EGI-1 + Decitabine (first compound 15.81 µM) is 0.808; in the experiment with 4EGI-1 + Decitabine (first compound 50 µM) it was 0.606.
As to COR-L23, the relative viability turned out to be 1.02 with XMD8-85 + Foretinib (first compound 0.08 µM); 1.05 with XMD8-85 + Foretinib (first compound 0.253 µM); 1.06 in the experiment with XMD8-85 + Foretinib (first compound 0.8 µM); 0.998 in the experiment with XMD8-85 + Foretinib (first compound 2.53 µM); 0.773 with XMD8-85 + Foretinib (first compound 8 µM); 0.513 in the experiment with XMD8-85 + Decitabine (first compound 0.08 µM). Moreover, the relative viability in the experiment with XMD8-85 + Decitabine (first compound 0.253 µM) turned out to be 0.397; with XMD8-85 + Decitabine (first compound 0.8 µM) it was 0.506; with XMD8-85 + Decitabine (first compound 2.53 µM), 0.458; with XMD8-85 + Decitabine (first compound 8 µM), 0.409; with 4EGI-1 + Navitoclax (first compound 0.5 µM), 1.22; with 4EGI-1 + Navitoclax (first compound 1.581 µM) it was 0.802. Further, the relative viability with 4EGI-1 + Navitoclax (first compound 5 µM) was determined as 1.1; with 4EGI-1 + Navitoclax (first compound 15.81 µM) it was 0.691; with 4EGI-1 + Navitoclax (first compound 50 µM), 0.147; in the experiment with 4EGI-1 + Decitabine (first compound 0.5 µM), 0.473; in the experiment with 4EGI-1 + Decitabine (first compound 1.581 µM), 0.343; with 4EGI-1 + Decitabine (first compound 5 µM), 0.474. Besides, the figures for the relative viability in the experiment with 4EGI-1 + Decitabine (first compound 15.81 µM) and with 4EGI-1 + Decitabine (first compound 50 µM) were 0.291 and 0.171, respectively.
As to NCI-H1915, the relative viability with XMD8-85 + Foretinib (first compound 0.08 µM) stood at 1.16; with XMD8-85 + Foretinib (first compound 0.253 µM), 1.1; with XMD8-85 + Foretinib (first compound 0.8 µM), 1.16; in the experiment with XMD8-85 + Foretinib (first compound 2.53 µM), 1.02; with XMD8-85 + Foretinib (first compound 8 µM), 0.83; with XMD8-85 + Decitabine (first compound 0.08 µM) it was 0.279. In addition, the relative viability with XMD8-85 + Decitabine (first compound 0.253 µM) is 0.262; with XMD8-85 + Decitabine (first compound 0.8 µM) it was 0.838; with XMD8-85 + Decitabine (first compound 2.53 µM), 0.563; with XMD8-85 + Decitabine (first compound 8 µM), 0.253; with 4EGI-1 + Navitoclax (first compound 0.5 µM) it was 0.825; in the experiment with 4EGI-1 + Navitoclax (first compound 1.581 µM), 0.606. For the same cell line, the relative viability was 0.797 with 4EGI-1 + Navitoclax (first compound 5 µM); 0.754 in the experiment with 4EGI-1 + Navitoclax (first compound 15.81 µM); 0.596 with 4EGI-1 + Navitoclax (first compound 50 µM); 0.27 with 4EGI-1 + Decitabine (first compound 0.5 µM); 0.226 with 4EGI-1 + Decitabine (first compound 1.581 µM); 0.259 with 4EGI-1 + Decitabine (first compound 5 µM). Besides, the results for the relative viability in the experiment with 4EGI-1 + Decitabine (first compound 15.81 µM) and with 4EGI-1 + Decitabine (first compound 50 µM) were 0.247 and 0.215, respectively.
Take NCI-H2126: the relative viability with XMD8-85 + Foretinib (first compound 0.08 µM) turned out to be 1.07; in the experiment with XMD8-85 + Foretinib (first compound 0.253 µM), 1.03; in the experiment with XMD8-85 + Foretinib (first compound 0.8 µM), 1.13; with XMD8-85 + Foretinib (first compound 2.53 µM) it was 0.996; in the experiment with XMD8-85 + Foretinib (first compound 8 µM), 0.935; with XMD8-85 + Decitabine (first compound 0.08 µM), 0.647. Besides, the relative viability with XMD8-85 + Decitabine (first compound 0.253 µM) is 0.578; with XMD8-85 + Decitabine (first compound 0.8 µM) it was 0.562; with XMD8-85 + Decitabine (first compound 2.53 µM) it was 0.57; with XMD8-85 + Decitabine (first compound 8 µM), 0.562; in the experiment with 4EGI-1 + Navitoclax (first compound 0.5 µM), 0.892; in the experiment with 4EGI-1 + Navitoclax (first compound 1.581 µM), 0.793. In addition, the relative viability was found to be 0.858 with 4EGI-1 + Navitoclax (first compound 5 µM); 0.709 in the experiment with 4EGI-1 + Navitoclax (first compound 15.81 µM); 0.806 with 4EGI-1 + Navitoclax (first compound 50 µM); 0.611 with 4EGI-1 + Decitabine (first compound 0.5 µM); 0.65 in the experiment with 4EGI-1 + Decitabine (first compound 1.581 µM); 0.617 with 4EGI-1 + Decitabine (first compound 5 µM). In addition, the results for the relative viability with 4EGI-1 + Decitabine (first compound 15.81 µM) and with 4EGI-1 + Decitabine (first compound 50 µM) were 0.472 and 0.488, respectively.
In the case of NCI-H2087, the relative viability came out at 1.34 with XMD8-85 + Foretinib (first compound 0.08 µM); 1.11 with XMD8-85 + Foretinib (first compound 0.253 µM); 1.32 in the experiment with XMD8-85 + Foretinib (first compound 0.8 µM); 1.15 with XMD8-85 + Foretinib (first compound 2.53 µM); 0.682 with XMD8-85 + Foretinib (first compound 8 µM); 0.311 with XMD8-85 + Decitabine (first compound 0.08 µM). Besides, the relative viability worked out at 0.262 with XMD8-85 + Decitabine (first compound 0.253 µM); 0.297 with XMD8-85 + Decitabine (first compound 0.8 µM); 0.32 in the experiment with XMD8-85 + Decitabine (first compound 2.53 µM); 0.195 with XMD8-85 + Decitabine (first compound 8 µM); 1.08 with 4EGI-1 + Navitoclax (first compound 0.5 µM); 0.883 with 4EGI-1 + Navitoclax (first compound 1.581 µM). Further, the relative viability with 4EGI-1 + Navitoclax (first compound 5 µM) came out at 0.999; with 4EGI-1 + Navitoclax (first compound 15.81 µM), 0.647; with 4EGI-1 + Navitoclax (first compound 50 µM), 0.218; with 4EGI-1 + Decitabine (first compound 0.5 µM) it was 0.376; with 4EGI-1 + Decitabine (first compound 1.581 µM) it was 0.338; with 4EGI-1 + Decitabine (first compound 5 µM) it was 0.258. Also, the relative viability worked out at 0.218 with 4EGI-1 + Decitabine (first compound 15.81 µM) and 0.158 in the experiment with 4EGI-1 + Decitabine (first compound 50 µM).
For the cell line LC-2-ad, the relative viability in the experiment with XMD8-85 + Foretinib (first compound 0.08 µM) worked out at 0.866; with XMD8-85 + Foretinib (first compound 0.253 µM), 0.976; with XMD8-85 + Foretinib (first compound 0.8 µM) it was 0.995; with XMD8-85 + Foretinib (first compound 2.53 µM), 0.785; in the experiment with XMD8-85 + Foretinib (first compound 8 µM) it was 0.607; with XMD8-85 + Decitabine (first compound 0.08 µM), 0.734. Also, the relative viability in the experiment with XMD8-85 + Decitabine (first compound 0.253 µM) came out at 0.774; in the experiment with XMD8-85 + Decitabine (first compound 0.8 µM), 0.811; with XMD8-85 + Decitabine (first compound 2.53 µM), 0.772; with XMD8-85 + Decitabine (first compound 8 µM), 0.514; with 4EGI-1 + Navitoclax (first compound 0.5 µM), 0.536; with 4EGI-1 + Navitoclax (first compound 1.581 µM), 0.486. In addition, the relative viability with 4EGI-1 + Navitoclax (first compound 5 µM) amounted to 0.398; with 4EGI-1 + Navitoclax (first compound 15.81 µM), 0.25; in the experiment with 4EGI-1 + Navitoclax (first compound 50 µM), 0.0791; in the experiment with 4EGI-1 + Decitabine (first compound 0.5 µM), 0.876; with 4EGI-1 + Decitabine (first compound 1.581 µM), 0.859; in the experiment with 4EGI-1 + Decitabine (first compound 5 µM), 0.742. The relative viability with 4EGI-1 + Decitabine (first compound 15.81 µM) was determined as 0.587; with 4EGI-1 + Decitabine (first compound 50 µM), 0.444.
